This test has as its target Protein arginine N-methyltransferase 5 (Homo sapiens, UniProt O14744). Kind of test: TR-FRET Assay: Protein arginine methyltransferase 5 (PRMT5) is a type II arginine methyltransferase that catalyze mono- and symmetric […] on arginine residues of histone or non-histone proteins in presence of S-adenosylmethionine (AdoMet or SAM) a cofactor responsible for donating the methyl group. PRMT5 is reported to be overexpressed in several human cancers. To identify compounds that inhibit the PRMT5 and decrease its activity, a TR-FRET based assay has been established. Time-resolved fluorescence resonance energy transfer (TR-FRET) HTS assays are homogeneous proximity assays where the interaction of two dye-labeled binding partners is detected by the energy transfer between a donor and an acceptor dye, and the subsequent light emission by the acceptor dye. PRMT5 catalyzes Histone H4 peptide [1-16] which is biotin tagged to the Lysine amino acid at carboxyl end, in presence of S-adenosyl-1-methionine (SAM) to methylate the peptide. The antibody specific to mono methylated H4 peptide (H4R3) with Ig conjugate binds to the methylated peptide, indirectly binding to the Europium lanthanide. SureLight Allophycocyanin-Streptavidin binds to the biotin tag of the peptide, therefore accepting the energy transferred from the Europium lanthanide. This energy transfer between Europium to SureLight Allophycocyanin is a direct measure of the activity/inhibition of the PRMT5 enzyme. […]. A general note: TR-FRET usually uses a lanthanide donor and a delayed reading to cut background.

Protein arginine N-methyltransferase 5, sequence (O14744 whole entry): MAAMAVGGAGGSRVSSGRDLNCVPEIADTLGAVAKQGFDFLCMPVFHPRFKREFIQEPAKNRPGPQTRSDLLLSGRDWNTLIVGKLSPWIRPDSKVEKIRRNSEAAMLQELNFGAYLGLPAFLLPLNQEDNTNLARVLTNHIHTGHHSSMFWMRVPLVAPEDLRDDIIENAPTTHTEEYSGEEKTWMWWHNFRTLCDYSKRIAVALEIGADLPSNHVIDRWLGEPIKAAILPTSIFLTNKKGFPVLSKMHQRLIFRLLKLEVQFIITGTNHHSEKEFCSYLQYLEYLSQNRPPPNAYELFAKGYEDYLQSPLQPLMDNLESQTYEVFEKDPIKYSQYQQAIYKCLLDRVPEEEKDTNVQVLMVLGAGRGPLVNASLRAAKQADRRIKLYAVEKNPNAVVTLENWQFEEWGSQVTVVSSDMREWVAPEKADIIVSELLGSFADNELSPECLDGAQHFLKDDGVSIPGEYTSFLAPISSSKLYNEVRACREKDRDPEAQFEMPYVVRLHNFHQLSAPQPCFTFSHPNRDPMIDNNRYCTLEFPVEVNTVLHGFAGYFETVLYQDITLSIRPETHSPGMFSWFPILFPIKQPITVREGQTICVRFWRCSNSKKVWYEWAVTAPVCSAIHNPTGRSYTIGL

Consider `O=C1N(Cc2cnc(-c3cccnc3)cn2)CCN1C[C@H](O)CN1CCc2ccccc2C1`, for which the half-maximal inhibitory concentration (IC50) amounted to 53 nM.

The IC50 is the concentration that gives 50% inhibition.

(Values after ChEMBL document CHEMBL5729526, “Substituted imidazolidin-2-one derivatives as PRMT5 inhibitors” (2023).)
